Measured values from patent publication US9187472B2 (AbbVie Inc., priority 2012, dated 2015).

Test system: PC3 cells
Assay: NAMPT Cell Proliferation Assay
Type: cell-based
Settings: Homo sapiens, PC-3, 120 h, 5 days incubation, cell viability by Cell Titer Glo
Summary of the method: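 Seed PC3 at 500 cells/well (RPMI, 10% HI-FBS), attach overnight; add compound, 10-fold series 10 μM → 1×10^−5 μM; incubate 5 d, 37° C/5% CO2; luminescent viability readout; fit % inhibition sigmoidally for IC50.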

SMILES	IC50 [nM]
N#Cc1ccc(CC(=O)N2CCC(c3ccc(NC(=O)NCc4ccn5ccnc5c4)cc3)CC2)cc1 [Example 1050, 1-(4-{1-[(4-cyanophenyl)acetyl]piperidin-4-yl}phenyl)-3-(imidazo[1,2-a]pyridin-7-ylmethyl)urea]	23.4
COc1ccsc1C(=O)N1CCC(c2ccc(NC(=O)NCc3ccn4ccnc4c3)cc2)CC1 [Example 1051, 1-(imidazo[1,2-a]pyridin-7-ylmethyl)-3-(4-{1-[(3-methoxythiophen-2-yl)carbonyl]piperidin-4-yl}phenyl)urea]	0.313
N#Cc1cc(C(=O)N2CCC(c3ccc(NC(=O)NCc4ccn5ccnc5c4)cc3)CC2)ccc1F [Example 1052, 1-{4-[1-(3-cyano-4-fluorobenzoyl)piperidin-4-yl]phenyl}-3-(imidazo[1,2-a]pyridin-7-ylmethyl)urea]	27.1
O=C(NCc1ccn2ccnc2c1)Nc1ccc(C2CCN(C(=O)c3nc4c(s3)CCCC4)CC2)cc1 [Example 1053, 1-(imidazo[1,2-a]pyridin-7-ylmethyl)-3-{4-[1-(4,5,6,7-tetrahydro-1,3-benzothiazol-2-ylcarbonyl)piperidin-4-yl]phenyl}urea]	3.41
O=C(NCc1ccn2ccnc2c1)Nc1ccc(C2CCN(C(=O)c3nc4ccccc4s3)CC2)cc1 [Example 1054, 1-{4-[1-(1,3-benzothiazol-2-ylcarbonyl)piperidin-4-yl]phenyl}-3-(imidazo[1,2-a]pyridin-7-ylmethyl)urea]	26
CCc1cc(C(=O)N2CCC(c3ccc(NC(=O)NCc4ccn5ccnc5c4)cc3)CC2)on1 [Example 1055, 1-(4-{1-[(3-ethyl-1,2-oxazol-5-yl)carbonyl]piperidin-4-yl}phenyl)-3-(imidazo[1,2-a]pyridin-7-ylmethyl)urea]	4.38
C=CCn1nc(C)cc1C(=O)N1CCC(c2ccc(NC(=O)NCc3ccn4ccnc4c3)cc2)CC1 [Example 1056, 1-(imidazo[1,2-a]pyridin-7-ylmethyl)-3-[4-(1-{[3-methyl-1-(prop-2-en-1-yl)-1H-pyrazol-5-yl]carbonyl}piperidin-4-yl)phenyl]urea]	1.3
O=C(NCc1ccn2ccnc2c1)Nc1ccc(C2CCN(C(=O)c3ccc4snnc4c3)CC2)cc1 [Example 1057, 1-{4-[1-(1,2,3-benzothiadiazol-5-ylcarbonyl)piperidin-4-yl]phenyl}-3-(imidazo[1,2-a]pyridin-7-ylmethyl)urea]	25.8
CCc1nc(C(=O)N2CCC(c3ccc(NC(=O)NCc4ccn5ccnc5c4)cc3)CC2)cs1 [Example 1058, 1-(4-{1-[(2-ethyl-1,3-thiazol-4-yl)carbonyl]piperidin-4-yl}phenyl)-3-(imidazo[1,2-a]pyridin-7-ylmethyl)urea]	2.49
Cc1cc(C(=O)N2CCC(c3ccc(NC(=O)NCc4ccn5ccnc5c4)cc3)CC2)cnc1C [Example 1059, 1-(4-{1-[(5,6-dimethylpyridin-3-yl)carbonyl]piperidin-4-yl}phenyl)-3-(imidazo[1,2-a]pyridin-7-ylmethyl)urea]	16.4
O=C(NCc1ccn2ccnc2c1)Nc1ccc(C2CCN(C(=O)c3cccc4ncsc34)CC2)cc1 [Example 1060, 1-{4-[1-(1,3-benzothiazol-7-ylcarbonyl)piperidin-4-yl]phenyl}-3-(imidazo[1,2-a]pyridin-7-ylmethyl)urea]	2.29
O=C(NCc1ccn2ccnc2c1)c1ccc(C2CCN(C(=O)c3cc(Cl)ncc3F)CC2)cc1 [Example 1061, 4-{1-[(2-chloro-5-fluoropyridin-4-yl)carbonyl]piperidin-4-yl}-N-(imidazo[1,2-a]pyridin-7-ylmethyl)benzamide]	7.84
O=C(NCc1ccn2ccnc2c1)c1ccc(C2CCN(C(=O)c3cc(C4CC4)no3)CC2)cc1 [Example 1062, 4-{1-[(3-cyclopropyl-1,2-oxazol-5-yl)carbonyl]piperidin-4-yl}-N-(imidazo[1,2-a]pyridin-7-ylmethyl)benzamide]	17
COc1ccsc1C(=O)N1CCC(c2ccc(C(=O)NCc3ccn4ccnc4c3)cc2)CC1 [Example 1063, N-(imidazo[1,2-a]pyridin-7-ylmethyl)-4-{1-[(3-methoxythiophen-2-yl)carbonyl]piperidin-4-yl}benzamide]	1.89
Cc1oc(C(C)C)cc1C(=O)N1CCC(c2ccc(C(=O)NCc3ccn4ccnc4c3)cc2)CC1 [Example 1064, N-(imidazo[1,2-a]pyridin-7-ylmethyl)-4-(1-{[2-methyl-5-(propan-2-yl)furan-3-yl]carbonyl}piperidin-4-yl)benzamide]	4.12
CC(Oc1cccc(F)c1)C(=O)N1CCC(c2ccc(NC(=O)NCc3ccn4ccnc4c3)cc2)CC1 (stereo not shown) [Example 1065, 1-(4-{1-[2-(3-fluorophenoxy)propanoyl]piperidin-4-yl}phenyl)-3-(imidazo[1,2-a]pyridin-7-ylmethyl)urea]	1.43
O=C(NCc1ccn2ccnc2c1)Nc1ccc(C2CCN(C(=O)c3ncc(F)cc3F)CC2)cc1 [Example 1066, 1-(4-{1-[(3,5-difluoropyridin-2-yl)carbonyl]piperidin-4-yl}phenyl)-3-(imidazo[1,2-a]pyridin-7-ylmethyl)urea]	5.7
CC(C)(C)OC(=O)N1CCC(c2ccc(NC(=O)Cc3ccn4ccnc4c3)c(F)c2)CC1 [Example 1067, tert-butyl 4-{3-fluoro-4-[(imidazo[1,2-a]pyridin-7-ylacetyl)amino]phenyl}piperidine-1-carboxylate]	370
O=C(NCc1ccn2ccnc2c1)c1ccc(C2CCN(C(=O)N3CCCCC3)CC2)cc1 [Example 1068, N-(imidazo[1,2-a]pyridin-7-ylmethyl)-4-[1-(piperidin-1-ylcarbonyl)piperidin-4-yl]benzamide]	5.77

Other lines, results leading:

IC50 [nM]	SMILES
1.23	O=C(NCc1ccn2ccnc2c1)Nc1ccc(C2CCN(C(=O)c3ccccc3)CC2)cc1F [Example 1069, 1-[4-(1-benzoylpiperidin-4-yl)-2-fluorophenyl]-3-(imidazo[1,2-a]pyridin-7-ylmethyl)urea]
0.857	CC(C)(C)C(=O)N1CCC(c2ccc(NC(=O)NCc3ccn4ccnc4c3)c(F)c2)CC1 [Example 1070, 1-{4-[1-(2,2-dimethylpropanoyl)piperidin-4-yl]-2-fluorophenyl}-3-(imidazo[1,2-a]pyridin-7-ylmethyl)urea]
0.473	CC(C)(C)CC(=O)N1CCC(c2ccc(NC(=O)NCc3ccn4ccnc4c3)c(F)c2)CC1 [Example 1071, 1-{4-[1-(3,3-dimethylbutanoyl)piperidin-4-yl]-2-fluorophenyl}-3-(imidazo[1,2-a]pyridin-7-ylmethyl)urea]
6.24	CC(C)CCC(=O)N1CCC(c2ccc(NC(=O)NCc3ccn4ccnc4c3)c(F)c2)CC1 [Example 1072, 1-{2-fluoro-4-[1-(4-methylpentanoyl)piperidin-4-yl]phenyl}-3-(imidazo[1,2-a]pyridin-7-ylmethyl)urea]
3.88	CC[C@H](C)C(=O)N1CCC(c2ccc(NC(=O)NCc3ccn4ccnc4c3)c(F)c2)CC1 [Example 1073, 1-(2-fluoro-4-{1-[(2S)-2-methylbutanoyl]piperidin-4-yl}phenyl)-3-(imidazo[1,2-a]pyridin-7-ylmethyl)urea]
14.4	O=C(NCc1ccn2ccnc2c1)Nc1ccc(C2CCN(C(=O)C3CCOCC3)CC2)cc1F [Example 1074, 1-{2-fluoro-4-[1-(tetrahydro-2H-pyran-4-ylcarbonyl)piperidin-4-yl]phenyl}-3-(imidazo[1,2-a]pyridin-7-ylmethyl)urea]
7.62	O=C(NCc1ccn2ccnc2c1)Nc1ccc(C2CCN(C(=O)c3ccccn3)CC2)cc1F [Example 1075, 1-{2-fluoro-4-[1-(pyridin-2-ylcarbonyl)piperidin-4-yl]phenyl}-3-(imidazo[1,2-a]pyridin-7-ylmethyl)urea]
5.7	N#Cc1ccccc1C(=O)N1CCC(c2ccc(NC(=O)NCc3ccn4ccnc4c3)c(F)c2)CC1 [Example 1076, 1-{4-[1-(2-cyanobenzoyl)piperidin-4-yl]-2-fluorophenyl}-3-(imidazo[1,2-a]pyridin-7-ylmethyl)urea]
69.1	CN(C)C(=O)N1CCC(c2ccc(C(=O)NCc3ccn4ccnc4c3)cc2)CC1 [Example 1077, 4-{4-[(imidazo[1,2-a]pyridin-7-ylmethyl)carbamoyl]phenyl}-N,N-dimethylpiperidine-1-carboxamide]
7.61	CC(C)C(=O)N1CCC(c2ccc(NC(=O)NCc3ccn4ccnc4c3)c(F)c2)CC1 [Example 1078, 1-{2-fluoro-4-[1-(2-methylpropanoyl)piperidin-4-yl]phenyl}-3-(imidazo[1,2-a]pyridin-7-ylmethyl)urea]
18.2	O=C(CC1CCCC1)Nc1ccc(C(=O)NCc2cn3ccnc3cc2F)cc1 [Example 1079, 4-[(cyclopentylacetyl)amino]-N-[(7-fluoroimidazo[1,2-a]pyridin-6-yl)methyl]benzamide]
3.41	CC(C)Cn1cc(-c2ccc(C(=O)NCc3cn4ccnc4cc3F)s2)cn1 [Example 1080, N-[(7-fluoroimidazo[1,2-a]pyridin-6-yl)methyl]-5-[1-(2-methylpropyl)-1H-pyrazol-4-yl]thiophene-2-carboxamide]
195	O=C(Cc1ccn2ccnc2c1)Nc1ccc(C2CCN(C(=O)c3ccccc3)CC2)cc1F [Example 1081, N-[4-(1-benzoylpiperidin-4-yl)-2-fluorophenyl]-2-(imidazo[1,2-a]pyridin-7-yl)acetamide]
2.18	CC(C)(CN1CCNCC1)Cn1cc(-c2ccc(C(=O)NCc3ccn4ccnc4c3)s2)cn1 [Example 1082, 5-{1-[2,2-dimethyl-3-(piperazin-1-yl)propyl]-1H-pyrazol-4-yl}-N-(imidazo[1,2-a]pyridin-7-ylmethyl)thiophene-2-carboxamide]
0.92	CC(C)(CN)Cn1cc(-c2ccc(C(=O)NCc3ccn4ccnc4c3)s2)cn1 [Example 1083, 5-[1-(3-amino-2,2-dimethylpropyl)-1H-pyrazol-4-yl]-N-(imidazo[1,2-a]pyridin-7-ylmethyl)thiophene-2-carboxamide]
